The target of one experiment is T1, MAO-A (Sus scrofa, UniProt Q6Q2J0).
T1 construct: from tissue; host or cells: pig brain mitochondria
T1 sequence (Q6Q2J0 1-527): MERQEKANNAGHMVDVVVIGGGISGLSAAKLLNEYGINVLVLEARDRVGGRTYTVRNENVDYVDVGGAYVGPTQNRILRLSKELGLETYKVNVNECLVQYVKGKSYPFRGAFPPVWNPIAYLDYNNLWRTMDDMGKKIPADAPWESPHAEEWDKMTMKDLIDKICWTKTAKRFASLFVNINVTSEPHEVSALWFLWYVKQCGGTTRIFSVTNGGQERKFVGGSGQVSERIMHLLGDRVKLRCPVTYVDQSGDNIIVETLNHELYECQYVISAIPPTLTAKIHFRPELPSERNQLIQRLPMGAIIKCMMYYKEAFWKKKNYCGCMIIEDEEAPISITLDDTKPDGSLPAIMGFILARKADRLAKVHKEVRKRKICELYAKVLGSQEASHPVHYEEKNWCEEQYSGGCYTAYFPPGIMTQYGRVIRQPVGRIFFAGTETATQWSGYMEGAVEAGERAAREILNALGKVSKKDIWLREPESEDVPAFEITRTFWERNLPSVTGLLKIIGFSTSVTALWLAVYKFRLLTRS
Put plainly: MAO-A activity, radiolabeled [3H]serotonin substrate. The experiment is classed as biochemical, pig. The following applies: for MAO-A Inhibition (type): 0.1–300 µM; for MAO-A Hillslope / MAO-A Residual Activity: mean. Here is the method:
(§1) Pig brains were obtained from a slaughterhouse. Mitochondrial fraction isolation and purification from brain cortex were performed as previously described. Briefly, grey matter from pig brains was homogenized and crude mitochondrial fraction was isolated and then centrifuged on the sucrose gradient to obtain purified mitochondrial fraction. The freshly purified mitochondria were kept on ice until the assays were performed and were used for measurements of the mitochondrial oxygen consumption rate, measurements of ATP and ROS formation. Frozen mitochondria (stored at −70 °C) were used for the following enzyme activity measurements: ETC complexes, citrate synthase (CS) and malate dehydrogenase (MDH) activity.
Mitochondria in KH buffer at final concentration of 800 µg/mL were preincubated with the tested drugs in a final concentration range of 0.1–300 µM for 60 min at 37 °C. For each measurement, there was a corresponding drug-free control (DMSO). Radiolabeled substrates ([^3H]serotonin for MAO-A and [^14C]PEA for MAO-B) were added to initiate the reaction. The reaction was carried out at 37 °C for 20 min for MAO-A and for 1 min for MAO-B, and the reaction was stopped by hydrochloric acid. The radioactivity of the organic phases of the extracts were measured by liquid scintillation counting (LS 6000IC, Beckman Instruments, Inc., Fullerton, CA, USA).
The inhibition of respiration rate and MAO activity were analyzed by A four-parameter logistic regression with Prism software (GraphPad Software, San Diego, CA, USA) was used to analyze the respiratory rate inhibition and activity of MAO. […] The IC50 represents the drug concentration required to inhibit the difference between the baseline and the residual value of the mitochondrial oxygen flux or MAO activity by 50%.

In experiment [1] the test system is complex IV (cytochrome c oxidase). Put plainly: Complex IV (cytochrome c oxidase) activity, spectrophotometric. The following applies: pig brain mitochondria, mean ± SD. In kind it is biochemical. The procedure: as §1
(§2) Ultrasonication and incubation of mitochondria with the tested drugs for 30 min at 30 °C was performed before measurement with a corresponding drug-free control (DMSO) for every measurement. Mitochondrial enzymes activities were determined spectrophotometrically as absorbance using a GENESYS 180 UV-Vis Spectrophotometer (Thermo Fisher Scientific, Waltham, MA, USA).
The medium consisted of KH2PO4, and the reaction was initiated by reduced cyt c. The decrease in absorbance was measured at 550 nm for 3 min. The final protein concentration was 10 µg/mL and final drugs concentrations 10, 50 and 100 µM. Drug-free control (DMSO) was used as a control for each measurement.

Experiment [2] relates to complex I-linked ATP content, pig brain mitochondria. The experiment can be described thus: Complex I-linked ATP content, bioluminescence. In kind it is biochemical. The following applies: for complex I-linked ATP content (relative to control = 100%): mean ± SD. The procedure:
as §1
The following protocol has been modified and optimized. An ATP Bioluminescence Assay Kit CLS II was used to measure ATP content and kinetics. The luminescence was measured using FluoroMax-3 (Jobin Yvon, Edison, NJ, USA) at 562 nm. Standard curve for ATP determination was prepared from ATP standard in the range from 0 to 600 nM. Tested substances were used at final concentrations 10, 50 and 100 µM, with drug-free control (DMSO) for each measurement and the final protein concentration was 50 µg/mL.
Mitochondria were incubated for 30 min on ice with the MiR05 buffer, tested substances and mitochondria. Consequently, the substrate mix was added, consisting of 5 mM malate and 5 mM pyruvate (for complex I) or 5 mM succinate and 1 μM rotenone (for complex II), 60 μM ADP and 0.75 mM MgCl2·6H2O and incubated for 30 min in 30 °C. Reaction was stopped by heating vials at 100 °C for 2 min. Background luminescence was measured. In total, 230 µL of luciferase reagent was added and total ATP° content for complex I and complex II+III was determined by measuring the luminescence for 1 min. Drug-free control (DMSO) was part of each measurement.

The test system of experiment [3] is complex II+III (succinate cytochrome c oxidoreductase). The experiment can be described thus: Complex II+III (succinate cytochrome c oxidoreductase) activity, spectrophotometric. The experiment is classed as biochemical. The following applies: 100 μM drug; pig brain mitochondria; mean ± SD. Here is the method: as §1, §2
The activity of complex II+III was measured with an antimycin A-sensitive cyt c reduction at 550 nm for 3 min, and it was initiated by the addition of cyt c. The medium consisted of KH2PO4, EDTA, KCN and rotenone. The final protein concentration was 50 µg/mL and final drugs concentrations 2.5, 5, 10, 50 and 100 µM. Drug-free control (DMSO) was used as a control for each measurement.

A further experiment addresses T2, citrate synthase (CS) (Sus scrofa, UniProt P00889).
T2 construct: Frozen mitochondria (stored at −70 °C) were used for the following enzyme activity measurements: ETC complexes, citrate synthase (CS) and malate dehydrogenase (MDH) activity; from tissue; host or cells: pig brain cortex, purified mitochondrial fraction (frozen, sonicated)
T2 sequence (P00889 28-464): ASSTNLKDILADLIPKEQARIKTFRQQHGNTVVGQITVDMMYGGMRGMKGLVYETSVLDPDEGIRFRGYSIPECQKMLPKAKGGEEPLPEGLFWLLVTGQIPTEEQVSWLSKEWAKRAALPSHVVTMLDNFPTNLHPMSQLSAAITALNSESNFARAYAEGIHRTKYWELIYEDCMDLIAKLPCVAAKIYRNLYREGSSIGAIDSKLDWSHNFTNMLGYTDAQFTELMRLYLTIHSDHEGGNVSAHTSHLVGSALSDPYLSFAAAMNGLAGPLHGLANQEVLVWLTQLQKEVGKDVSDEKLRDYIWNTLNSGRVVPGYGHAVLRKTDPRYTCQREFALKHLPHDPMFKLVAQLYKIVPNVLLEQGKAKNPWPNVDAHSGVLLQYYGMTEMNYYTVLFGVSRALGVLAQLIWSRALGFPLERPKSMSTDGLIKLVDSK
The experiment can be described thus: Citrate synthase activity. In kind it is biochemical, pig. The following applies: mean, N=3. Here is the method:
as §1, §2
The reaction mixture consisted of Triton, Tris, 5,5′-dithiobis-(2-nitrobenzoic) acid and acetyl coenzyme A. The reaction was started by adding oxaloacetate and the CS activity was measured by detecting the color change of 5,5′-dithiobis-(2-nitrobenzoic) acid at 412 nm with a duration of 3 min. […]

Setting [4] is: mean ± SEM, 4 measurements, read-out: MAO-A IC50.

Here are results for three compounds from paper PMC9697131, “Agomelatine, Ketamine and Vortioxetine Attenuate Energy Cell Metabolism—In Vitro Study” (International Journal of Molecular Sciences, 2022).

SMILES strings stand for the structures. Like-named read-outs stand apart in the source and are kept apart here.

In general, IC50 refers to the midpoint of a concentration-inhibition curve.

For `COc1ccc2cccc(CCNC(C)=O)c2c1` [agomelatine], the “MAO-A Inhibition (type)” value on MAO-A is listed as “partial”. In addition, at MAO-A (setting [4]), the IC50 was found to be 8.2 µM. Further, the “MAO-A Hillslope” value at MAO-A (4 measurements) amounted to 3.40. In addition, the “MAO-A Residual Activity” value at MAO-A (4 measurements) is 0.190 rel.u. Besides, the results for the “complex IV activity (relative to control = 100%)” value in experiment [1] (10 μM drug), in experiment [1] (50 μM drug) and in experiment [1] (100 μM drug) were 45.0 ± 3.6%, 17.9 ± 3.4% and 12.8 ± 4.1%, respectively. Further, in experiment [2] (10 μM drug), the “complex I-linked ATP content (relative to control = 100%)” value was found to be 106.4 ± 4.0%. Further, the “complex II+III activity (relative to control = 100%)” value in experiment [3] turned out to be 94.9 ± 4.3%. Besides, the figures for the “CS (% of Control)” value on citrate synthase (CS) (10 μM drug) and at citrate synthase (CS) (100 μM drug) were 108.8 % of Control and 95.7 % of Control, respectively.

In the case of `CNC1(c2ccccc2Cl)CCCCC1=O` (centres unmarked) [ketamine], at MAO-A, inhibition was half-maximal at 10.4 µM (IC50) and the “MAO-A Inhibition (type)” value is given as “partial”. For the same compound, on MAO-A (4 measurements), the “MAO-A Hillslope” value is recorded as 1.50 and the “MAO-A Residual Activity” value is recorded as 0.259 rel.u. Moreover, the “complex IV activity (relative to control = 100%)” value in experiment [1] (100 μM drug) is recorded as 3.9 ± 3.0%. In addition, the “effect on complex I-linked ATP content (in words)” value in experiment [2] (10, 50 and 100 µM) is “no significant effect”. Also, the “complex II+III activity (relative to control = 100%)” value in experiment [3] is 93.6 ± 2.6%. Moreover, on citrate synthase (CS) (10 μM drug), the “CS (% of Control)” value is 107.3 % of Control. For the same compound, at citrate synthase (CS) (100 μM drug), the “CS (% of Control)” value is 97.4 % of Control.

As to `Cc1ccc(Sc2ccccc2N2CCNCC2)c(C)c1` [vortioxetine], the “MAO-A Inhibition (type)” value at MAO-A is reported as “partial”. In addition, the IC50 at MAO-A (setting [4]) amounted to 7.33 µM. On MAO-A (4 measurements), the “MAO-A Hillslope” value is listed as 1.76 and the “MAO-A Residual Activity” value worked out at 0.109 rel.u. Besides, in experiment [1] (100 μM drug), the “complex IV activity (relative to control = 100%)” value was 9.3 ± 3.8%. Further, the “complex I-linked ATP content (relative to control = 100%)” value in experiment [2] (100 μM drug) worked out at 119.0 ± 10.6%. In addition, the “complex II+III activity (relative to control = 100%)” value in experiment [3] stood at 43.9 ± 1.2%. The “CS (% of Control)” value on citrate synthase (CS) (10 μM drug) is listed as 109.3 % of Control. Moreover, the “CS (% of Control)” value at citrate synthase (CS) (100 μM drug) is recorded as “* 96.9 % of Control”.
